Test results published in US8273404B2, “Extraction of solvents from drug containing polymer reservoirs” (Cordis Corporation, priority 2008, dated 2012).

Assays:
[1] = format: physicochemical; conditions: 0.02 weight percent BHT per total basecoat solids
Source text: Referring to FIG. 113, there is illustrated in graphical format, the results of the same drug screening as described above with the solution applied to a cobalt-chromium, 18 mm stent. In this test, two sets of solution samples were utilized, one with sirolimus and polymer solution containing the antioxidant and one with sirolimus and polymer solution containing no antioxidant. The antioxidant utilized was 0.02 weight percent BHT per total basecoat solids. The test was utilized to determine the percent drug content change over a time period of 0 to 12 weeks under two conditions; namely, 40° C. with 75 percent relative humidity, and ambient conditions (25° C.).

[2] = tested on: coronary arteries after balloon angioplasty; test: IVUS substudy of the MVP restenosis trial (lumen, wall, EEM areas after balloon angioplasty); format: in vivo, human
Procedure: The present invention concerns the IVUS substudy from the MVP restenosis trial. MVP was a double-blind placebo-controlled randomized clinical trial with four study groups. The protocol was approved by the Montreal Heart Institute institutional review board. The MVP study design, inclusion and exclusion criteria have been previously described (N Engl J Med 1997; 365-372). Briefly, patients referred for elective coronary angioplasty were evaluated at least 30 days prior to their scheduled procedure. Eligible patients were asked to provide written informed consent. Patients were eligible if they were scheduled to undergo standard balloon angioplasty on at least one native coronary artery and had at least one de novo target lesion with luminal narrowing of fifty percent or more by caliper measurements.
Beginning thirty days prior to scheduled angioplasty, patients were randomly assigned to receive either probucol alone, multivitamins alone, the combination of probucol and multivitamins, or placebo. Probucol 500 mg or matched placebo was administered twice daily. The multivitamin complex, consisting of vitamin E 700 IU, vitamin C 500 mg and beta-carotene 30,000 IU, or matched placebo was also administered in one tablet twice daily. All patients received an extra dose of probucol 1000 mg and/or vitamin E 2000 IU and/or matched placebos twelve hours before angioplasty, according to randomization assignment. […] All patients received aspirin 325 mg daily started at least thirty days before procedure and continued for the study period. Balloon angioplasty was performed according to standard techniques. Intracoronary nitroglycerin (0.3 mg) was given for each target artery for both pre- and post-dilatation angiography and at follow-up. The sequence of contrast injections with the exact degree of angulation was recorded and used for every angiogram. Coronary arteriograms (pre-, post-procedure, and final follow-up) were analyzed together using the Coronary Measurement System (CMS), as previously reported. Patient follow-up included clinical evaluation, exercise treadmill testing, blood chemistry, pill count and drug level measurements, and dietary assessment and intervention. Patients were readmitted for follow-up coronary angiography at five to seven months. […]
IVUS examinations were performed using 30 MHZ, 3.5 French mechanical (1800 rpm) ultrasound catheters (Boston Scientific, Natick, Mass.) and a dedicated imaging console (Hewlett Packard, Andover, Mass.) (Curr Opin Cardiol 1994; 9:627-633). […] IVUS imaging was monitored by an experienced cardiologist, but the angioplasty operator was blinded to ultrasound results to avoid altering standard balloon angioplasty practice. […] One angiographic view was recorded on videotape before beginning pullback of the IVUS catheter. […]

[3] = tested on: coronary restenosis after angioplasty; test: MultiVitamins and Probucol (MVP) randomized clinical trial, angiographic and clinical endpoints; format: in vivo, human
Source text: It was not possible to determine with angiography alone whether probucol acted via inhibition of tissue hyperplasia or improvement in vascular remodeling. […] In addition, the invention enables the skilled practitioner to use probucol in conjunction with other percutaneous coronary interventions such as stenting if it is deemed appropriate.
Beginning thirty days prior to scheduled angioplasty, patients were randomly assigned to receive either probucol alone, multivitamins alone, the combination of probucol and multivitamins, or placebo. Probucol 500 mg or matched placebo was administered twice daily. The multivitamin complex, consisting of vitamin E 700 IU, vitamin C 500 mg and beta-carotene 30,000 IU, or matched placebo was also administered in one tablet twice daily. All patients received an extra dose of probucol 1000 mg and/or vitamin E 2000 IU and/or matched placebos twelve hours before angioplasty, according to randomization assignment. […] All patients received aspirin 325 mg daily started at least thirty days before procedure and continued for the study period. Balloon angioplasty was performed according to standard techniques. Intracoronary nitroglycerin (0.3 mg) was given for each target artery for both pre- and post-dilatation angiography and at follow-up. The sequence of contrast injections with the exact degree of angulation was recorded and used for every angiogram. Coronary arteriograms (pre-, post-procedure, and final follow-up) were analyzed together using the Coronary Measurement System (CMS), as previously reported. Patient follow-up included clinical evaluation, exercise treadmill testing, blood chemistry, pill count and drug level measurements, and dietary assessment and intervention. Patients were readmitted for follow-up coronary angiography at five to seven months. Patients in whom arteriography was performed for clinical reasons before the fifth month returned for repeat angiographic examination at five to seven months if no definite angiographic restenosis was present on at least one dilated site. During follow-up, patients with recurrence or exacerbation of anginal symptoms were treated with medical therapy or revascularization procedures (reangioplasty or Coronary Bypass Surgery) as clinically indicated. Patients with angiographic restenosis (lesion>50%. at follow-up) without clinical evidence of ischemia were not subjected to further interventional procedures.
Probucol is one of the first pharmacological interventions shown to prevent coronary restenosis after balloon angioplasty. However, its mechanism of action and its efficacy as a vascular remodeling agent has never been studied. […]

LDL = test: Ex vivo LDL peroxidation (diene conjugates after addition of copper ions) of MVP patients; design: species or system human; conditions: treatment for one month, preliminary results
Source text: Dietary intervention and smoking habits were similar in all groups. Probucol may simply be a more powerful antioxidant than the combination of vitamins. To this regard, preliminary results from the continuous spectrophotometric monitoring of diene conjugates in LDL after the addition of copper ions to the isolated lipoprotein ex vivo (Free Radic Res Commun 1989; 6:67-75) of MVP patients are noteworthy.

| SMILES | effect on sirolimus drug degradation on coated stent [1] | reduction in lumen loss compared to non-probucol treated patients ([2]; IVUS, patients receiving probucol) [mm^2] | Lumen area, Follow-up Post PTCA (change) ([2]; IVUS, per segment analysis) [mm^2] | reduction in lumen loss compared to the placebo group only ([2]; IVUS, probucol given alone) [mm^2] | Lumen area, Follow-up Post PTCA (change) ([2]; efficacy analysis in compliant patients) [mm^2] | patients in whom restenosis still occurred ([3]; probucol alone) | reduction of angiographic lumen loss compared to placebo ([3]; probucol given alone) | reduction of restenosis rate per segment compared to placebo ([3]; probucol given alone) | reduction of the need for repeat angioplasty at 6 month compared to placebo ([3]; probucol given alone) | protection against LDL oxidation (lag phase for LDL peroxidation) (LDL) |
| --- | --- | --- | --- | --- | --- | --- | --- | --- | --- | --- |
| Cc1cc(C(C)(C)C)c(O)c(C(C)(C)C)c1 [BHT, Butylated Hydroxytoluene] | lessens drug degradation at both 8 weeks and 12 weeks |  |  |  |  |  |  |  |  |  |
| CC(C)(Sc1cc(C(C)(C)C)c(O)c(C(C)(C)C)c1)Sc1cc(C(C)(C)C)c(O)c(C(C)(C)C)c1 [Probucol Alone, 4,4′-([1-methylethylidene)bis(thio)]bis-[2,6-bis(1,1-dimethylethyl)phenol]] |  | 0.79 | −0.15 ± 1.70 | 1.06 | −0.15 ± 1.70 | over twenty percent | sixty-eight percent | forty-seven percent | fifty-eight percent | significantly greater protection against LDL oxidation than vitamins alone or the combination of probucol and vitamins |
